What all share (experiment): MTT cell proliferation assay
Common to all, as to assay type: cell-based

One assay relates to MS751 cells. To be noted: Homo sapiens, MS751, MS751 cells, approximately 64-72 hours incubation. An outline of the steps: (§1)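 Cytotoxicity was measured by MTT: OD490 of the solubilized formazan after roughly 4 h with MTT reagent, reported as mean percent inhibition relative to the negative control. Test compounds covered eight concentrations between 1 nM and 30 μM, added to 5,000–10,000 cells per well that had attached overnight.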

In another assay the test system is 3T3 cells. To be noted: Mus musculus, NIH3T3, approximately 64-72 hours incubation. In a few lines:
as §1

The subject of the next assay is Z138 cells. To be noted: Homo sapiens, Z-138, Z138 cells, approximately 64-72 hours incubation. In a few lines: as §1
Where [1] appears, read: read-out: MTT Assay IC50 MS-751.
Where [2] appears, read: read-out: MTT Assay IC50, MS-751.
The mark [3] stands for this setting: read-out: MTT Assay IC50, Z-138.

Like-named read-outs stand apart in the source and are kept apart here.

Turning to `CC1(C)CN(C(=O)c2ccc(-c3cc(C(F)(F)F)c4oc(CNC(=O)/C=C/c5ccc(N)nc5)cc4c3)cc2)C1` [Compound 526, (E)-3-(6-aminopyridin-3-yl)-N-((5-(4-(3,3-dimethylazetidine-1-carbonyl)phenyl)-7-(trifluoromethyl)benzofuran-2-yl)methyl)acrylamide], the IC50 in the assay on MS751 cells (setting [1]) is 100 to 5000 nM; in the assay on 3T3 cells (read-out: MTT Assay IC50 3T3), above 10000 nM; in the assay on Z138 cells (read-out: MTT Assay IC50 Z-138) it was 100 to 5000 nM.

Take `Nc1ccc(/C=C/C(=O)NCc2cc3cc(-c4ccc(C(=O)N5CC6CC(C5)O6)cn4)cc(C(F)(F)F)c3o2)cn1` [Compound 626, (E)-N-((5-(5-(6-oxa-3-azabicyclo[3.1.1]heptane-3-carbonyl)pyridin-2-yl)-7-(trifluoromethyl)benzofuran-2-yl)methyl)-3-(6-aminopyridin-3-yl)acrylamide]: the IC50 is 100 to 5000 nM with MS751 cells (setting [1]), above 10000 nM with 3T3 cells (read-out: MTT Assay IC50 3T3) and 100 to 5000 nM in the assay with Z138 cells (read-out: MTT Assay IC50 Z-138).

For the compound `Nc1ccc(/C=C/C(=O)NCc2cc3cccc(-c4ccc(C(=O)N5CCOCC5)cc4)c3o2)cn1` [Compound 559, (E)-3-(6-aminopyridin-3-yl)-N-((7-(4-(morpholine-4-carbonyl)phenyl)benzofuran-2-yl)methyl)acrylamide], the IC50 in the assay on MS751 cells (setting [1]) was below 100 nM; in the assay with 3T3 cells (read-out: MTT Assay IC50 3T3), 100 to 5000 nM; in the assay on Z138 cells (read-out: MTT Assay IC50 Z-138), below 100 nM.

On to `Nc1ccc(/C=C/C(=O)NCc2cc3cc(-c4ccc(C(=O)N5CCC(F)(F)CC5)cc4)cc(-c4cccc(C(F)(F)F)c4)c3o2)cn1` [Compound 731, (E)-3-(6-aminopyridin-3-yl)-N-((5-(4-(4,4-difluoropiperidine-1-carbonyl)phenyl)-7-(3-(trifluoromethyl)phenyl)benzofuran-2-yl)methyl)acrylamide], for which the IC50 in the assay with MS751 cells (setting [2]) was 100 to 5000 nM; in the assay with 3T3 cells (read-out: MTT Assay IC50, 3T3) it was 100 to 5000 nM; in the assay with Z138 cells (setting [3]) it was below 100 nM.

`Nc1ccc(/C=C/C(=O)NCc2cc3cc(-c4ccc(C(=O)N5CCOCC5)nn4)cc(Cl)c3o2)cn1` [Compound 552, (E)-3-(6-aminopyridin-3-yl)-N-((7-chloro-5-(6-(morpholine-4-carbonyl)pyridazin-3-yl)benzofuran-2-yl)methyl)acrylamide]: the IC50 with MS751 cells (setting [1]) is 100 to 5000 nM; in the assay with 3T3 cells (read-out: MTT Assay IC50 3T3), above 10000 nM; with Z138 cells (read-out: MTT Assay IC50 Z-138), 100 to 5000 nM.

Consider `Nc1ccc(/C=C/C(=O)NCc2cc3cc(-c4ccc(CN5CCC(F)(F)CC5)cn4)cc(C(F)(F)F)c3o2)cn1` [Compound 675, (E)-3-(6-aminopyridin-3-yl)-N-((5-(5-((4,4-difluoropiperidin-1-yl)methyl)pyridin-2-yl)-7-(trifluoromethyl)benzofuran-2-yl)methyl)acrylamide], for which the IC50 was above 10000 nM in the assay with MS751 cells (setting [2]); above 10000 nM in the assay on 3T3 cells (read-out: MTT Assay IC50, 3T3); above 10000 nM with Z138 cells (setting [3]).

Regarding `Nc1ccc(/C=C/C(=O)NCc2cc3cc(-c4ccc(C(=O)N5CC[C@@H](F)C5)cc4)cc(C(F)(F)F)c3o2)cn1` [Compound 522, (R,E)-3-(6-aminopyridin-3-yl)-N-((5-(4-(3-fluoropyrrolidine-1-carbonyl)phenyl)-7-(trifluoromethyl)benzofuran-2-yl)methyl)acrylamide], the concentration for half-maximal inhibition (IC50) was 100 to 5000 nM in the assay on MS751 cells (setting [1]), above 10000 nM in the assay with 3T3 cells (read-out: MTT Assay IC50 3T3) and 100 to 5000 nM in the assay on Z138 cells (read-out: MTT Assay IC50 Z-138).

With `Nc1ccc(/C=C/C(=O)NCc2cc3cc(-c4ccc(C(=O)N5CCC(F)(F)CC5)cn4)cnc3o2)cn1` [Compound 658, (E)-3-(6-aminopyridin-3-yl)-N-((5-(5-(4,4-difluoropiperidine-1-carbonyl)pyridin-2-yl)furo[2,3-b]pyridin-2-yl)methyl)acrylamide], the IC50 in the assay with MS751 cells (setting [2]) is 100 to 5000 nM; with 3T3 cells (read-out: MTT Assay IC50, 3T3), above 10000 nM; with Z138 cells (setting [3]) it was 100 to 5000 nM.

Turning to `O=C(/C=C/c1ccccn1)NCc1cc2cc(-c3ccc(C(=O)N4CCOCC4)cc3)cc(Cl)c2o1` [Compound 539, (E)-N-((7-chloro-5-(4-(morpholine-4-carbonyl)phenyl)benzofuran-2-yl)methyl)-3-(pyridin-2-yl)acrylamide], the IC50 with MS751 cells (setting [1]) is 100 to 5000 nM; in the assay on 3T3 cells (read-out: MTT Assay IC50 3T3), above 10000 nM; in the assay with Z138 cells (read-out: MTT Assay IC50 Z-138) it was 100 to 5000 nM.

With `CC1(O)CCN(C(=O)c2ccc(-c3cc(C(F)(F)F)c4oc(CNC(=O)/C=C/c5ccc(N)nc5)cc4c3)nc2)CC1` [Compound 620, (E)-3-(6-aminopyridin-3-yl)-N-((5-(5-(4-hydroxy-4-methylpiperidine-1-carbonyl)pyridin-2-yl)-7-(trifluoromethyl)benzofuran-2-yl)methyl)acrylamide], the IC50 was below 100 nM with MS751 cells (setting [1]), above 10000 nM in the assay with 3T3 cells (read-out: MTT Assay IC50 3T3) and below 100 nM in the assay on Z138 cells (read-out: MTT Assay IC50 Z-138).

As to `Nc1ccc(/C=C/C(=O)NCc2coc3c(Cl)cc(-c4ccc(C(=O)N5CCC(F)(F)CC5)cn4)cc23)cn1` [Compound 766, (E)-3-(6-aminopyridin-3-yl)-N-((7-chloro-5-(5-(4,4-difluoropiperidine-1-carbonyl)pyridin-2-yl)benzofuran-3-yl)methyl)acrylamide], the IC50 lay within 100 to 5000 nM in the assay on MS751 cells (setting [2]); 5000 to 10000 nM with 3T3 cells (read-out: MTT Assay IC50, 3T3); 100 to 5000 nM in the assay on Z138 cells (setting [3]).

For the compound `Cc1ccncc1-c1cc(-c2ccc(C(=O)N3CCC(F)(F)CC3)cc2)cc2cc(CNC(=O)/C=C/c3ccc(N)nc3)oc12` [Compound 744, (E)-3-(6-aminopyridin-3-yl)-N-((5-(4-(4,4-difluoropiperidine-1-carbonyl)phenyl)-7-(4-methylpyridin-3-yl)benzofuran-2-yl)methyl)acrylamide], the IC50 was below 100 nM in the assay on MS751 cells (setting [2]); 100 to 5000 nM in the assay on 3T3 cells (read-out: MTT Assay IC50, 3T3); below 100 nM in the assay on Z138 cells (setting [3]).

With `CC(=O)c1ccc(-c2cc(Cl)c3oc(CNC(=O)/C=C/c4ccc(N)nc4)cc3c2)s1` [Compound 500, (E)-N-((5-(5-acetylthiophen-2-yl)-7-chlorobenzofuran-2-yl)methyl)-3-(6-aminopyridin-3-yl) acrylamide], the IC50 in the assay with MS751 cells (setting [1]) was 100 to 5000 nM; in the assay on 3T3 cells (read-out: MTT Assay IC50 3T3), above 10000 nM; with Z138 cells (read-out: MTT Assay IC50 Z-138), 100 to 5000 nM.

For the compound `O=C(/C=C/c1cccnc1)NCc1cc2cc(-c3ccc(C(=O)N4CCC(F)(F)CC4)cc3)cc(-c3ccncc3)c2o1` [Compound 723, (E)-N-((5-(4-(4,4-difluoropiperidine-1-carbonyl)phenyl)-7-(pyridin-4-yl)benzofuran-2-yl)methyl)-3-(pyridin-3-yl)acrylamide], the IC50 was below 100 nM in the assay on MS751 cells (setting [2]); below 100 nM in the assay with 3T3 cells (read-out: MTT Assay IC50, 3T3); below 100 nM in the assay with Z138 cells (setting [3]).

As to `Nc1ccc(/C=C/C(=O)NCc2cc3cc(-c4ccc(C(=O)N5CCC(F)(F)CC5)cc4F)cc(-c4cccnc4)c3o2)cn1` [Compound 748, (E)-3-(6-aminopyridin-3-yl)-N-((5-(4-(4,4-difluoropiperidine-1-carbonyl)-2-fluorophenyl)-7-(pyridin-3-yl)benzofuran-2-yl)methyl)acrylamide], the IC50 in the assay on MS751 cells (setting [2]) is below 100 nM; in the assay on 3T3 cells (read-out: MTT Assay IC50, 3T3), 100 to 5000 nM; with Z138 cells (setting [3]), below 100 nM.

`Nc1ccc(/C=C/C(=O)NCc2cc3cc(-c4ccc5occc5c4)cc(-c4ccc(F)cc4F)c3o2)cn1` [Compound 759, (E)-3-(6-aminopyridin-3-yl)-N-((7-(2,4-difluorophenyl)-5,5′-bibenzofuran-2-yl)methyl)acrylamide]: the IC50 in the assay on MS751 cells (setting [2]) is 100 to 5000 nM; with 3T3 cells (read-out: MTT Assay IC50, 3T3), above 10000 nM; with Z138 cells (setting [3]), below 100 nM.

As for `Nc1ccc(/C=C/C(=O)NCc2cc3cc(-c4ccc(C(F)(F)F)cc4)cc(-c4ccc(F)cc4)c3o2)cn1` [Compound 692, (E)-3-(6-aminopyridin-3-yl)-N-((7-(4-fluorophenyl)-5-(4-(trifluoromethyl)phenyl)benzofuran-2-yl)methyl)acrylamide], the IC50 with MS751 cells (setting [2]) is 100 to 5000 nM; in the assay on 3T3 cells (read-out: MTT Assay IC50, 3T3), above 10000 nM; in the assay with Z138 cells (setting [3]), 100 to 5000 nM.

With `Nc1ccc(/C=C/C(=O)NCc2cc3cc(-c4ccc(C(=S)N5CCC(F)(F)CC5)cn4)cc(-c4ccncc4)c3o2)cn1` [Compound 707, (E)-3-(6-aminopyridin-3-yl)-N-((5-(5-(4,4-difluoropiperidine-1-carbonothioyl)pyridin-2-yl)-7-(pyridin-4-yl)benzofuran-2-yl)methyl)acrylamide], the IC50 was below 100 nM in the assay on MS751 cells (setting [2]); 100 to 5000 nM in the assay on 3T3 cells (read-out: MTT Assay IC50, 3T3); below 100 nM with Z138 cells (setting [3]).

Consider `Nc1ccc(/C=C/C(=O)NCc2cc3cc(-c4ccc(C(=O)N5CCC(F)(F)CC5)cc4F)cc(-c4ccc(F)cc4)c3o2)cn1` [Compound 751, (E)-3-(6-aminopyridin-3-yl)-N-((5-(4-(4,4-difluoropiperidine-1-carbonyl)-2-fluorophenyl)-7-(4-fluorophenyl)benzofuran-2-yl)methyl)acrylamide], for which the IC50 was below 100 nM in the assay on MS751 cells (setting [2]); 100 to 5000 nM in the assay with 3T3 cells (read-out: MTT Assay IC50, 3T3); below 100 nM in the assay on Z138 cells (setting [3]).

As for `Nc1ccc(/C=C/C(=O)NCc2cc3c(C(F)(F)F)cc(-c4ccc(C(=O)N5CCC(F)(F)CC5)cn4)cc3o2)cn1` [Compound 762, (E)-3-(6-aminopyridin-3-yl)-N-((6-(5-(4,4-difluoropiperidine-1-carbonyl)pyridin-2-yl)-4-(trifluoromethyl)benzofuran-2-yl)methyl)acrylamide], the IC50 in the assay on MS751 cells (setting [2]) was 5000 to 10000 nM; in the assay on 3T3 cells (read-out: MTT Assay IC50, 3T3), above 10000 nM; with Z138 cells (setting [3]) it was 100 to 5000 nM.

`Nc1ccc(/C=C/C(=O)NCc2cc3cc(-c4ccc(C(=S)N5CCC(F)(F)CC5)cc4)cc(-c4ccc(F)cc4F)c3o2)cn1` [Compound 706, (E)-3-(6-aminopyridin-3-yl)-N-((7-(2,4-difluorophenyl)-5-(4-(4,4-difluoropiperidine-1-carbonothioyl)phenyl)benzofuran-2-yl)methyl)acrylamide]: the IC50 with MS751 cells (setting [2]) is below 100 nM; in the assay on 3T3 cells (read-out: MTT Assay IC50, 3T3), 100 to 5000 nM; in the assay with Z138 cells (setting [3]), below 100 nM.

The values are drawn from patent publication US12331040B2 (Karyopharm Therapeutics Inc., priority 2013, dated 2025).
